Measured values: ChEMBL document CHEMBL1201862, “PubChem BioAssay data set” (2004)
Active and inactive are the calls of the source.

Tests used:
[1] = biological target: Polyadenylate-binding protein 1 (Homo sapiens, UniProt P11940); test: PABP poly(A) RNA binding inhibitors, primary screen, biochemical, fluorescence polarization, uHTS (AID 2014)
[2] = biological target: T1, Insulin-degrading enzyme (Homo sapiens, UniProt P14735); test: Dose Response: Fluorescence polarization-based cell-based high throughput dose response assay for inhibitors of insulin-degrading enzyme (IDE). [Related pubchem assays: 434962 (Primary screen (IDE inhibitors in singlicate)), 449730 (Counterscreen (Cytotoxicity in triplicate)), 435028 (Confirmation (IDE inhibitors in triplicate)), 434984 (Summary …; format: functional
T1 sequence (P14735 whole entry): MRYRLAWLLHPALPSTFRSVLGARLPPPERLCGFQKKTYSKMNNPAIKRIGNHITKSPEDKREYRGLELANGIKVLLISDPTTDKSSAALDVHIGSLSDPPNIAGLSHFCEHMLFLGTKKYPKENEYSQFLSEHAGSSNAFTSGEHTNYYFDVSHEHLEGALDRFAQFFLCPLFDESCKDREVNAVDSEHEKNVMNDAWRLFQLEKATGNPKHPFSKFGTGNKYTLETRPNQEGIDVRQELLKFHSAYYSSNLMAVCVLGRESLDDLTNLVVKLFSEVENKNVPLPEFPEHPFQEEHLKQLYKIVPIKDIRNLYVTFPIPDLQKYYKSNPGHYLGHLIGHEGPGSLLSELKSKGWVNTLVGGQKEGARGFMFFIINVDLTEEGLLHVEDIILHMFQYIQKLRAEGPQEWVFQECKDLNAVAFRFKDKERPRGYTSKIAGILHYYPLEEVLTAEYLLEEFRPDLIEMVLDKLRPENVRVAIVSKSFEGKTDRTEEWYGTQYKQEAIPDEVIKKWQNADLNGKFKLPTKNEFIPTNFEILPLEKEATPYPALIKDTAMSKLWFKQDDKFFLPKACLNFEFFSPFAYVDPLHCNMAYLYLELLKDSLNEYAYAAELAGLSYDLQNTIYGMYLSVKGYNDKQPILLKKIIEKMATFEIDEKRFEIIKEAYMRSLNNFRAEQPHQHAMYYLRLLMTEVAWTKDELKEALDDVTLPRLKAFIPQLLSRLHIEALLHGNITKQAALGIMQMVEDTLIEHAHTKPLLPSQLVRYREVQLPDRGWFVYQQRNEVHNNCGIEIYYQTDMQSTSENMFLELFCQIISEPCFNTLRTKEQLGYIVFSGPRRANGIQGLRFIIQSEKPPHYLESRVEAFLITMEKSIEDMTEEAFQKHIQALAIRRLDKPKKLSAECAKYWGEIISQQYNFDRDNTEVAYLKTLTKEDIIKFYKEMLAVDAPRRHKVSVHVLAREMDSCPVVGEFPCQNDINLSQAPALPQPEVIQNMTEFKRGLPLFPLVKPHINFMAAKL

[3] = Counterscreen for IDE inhibitors: Luminescence-based cell-based high throughput dose response assay to identify compounds that are cytotoxic to HEK cells. [Related pubchem assays: 434962 (Primary screen (IDE inhibitors in singlicate)), 449730 (Counterscreen (Cytotoxicity in triplicate)), 435028 (Confirmation (IDE inhibitors in triplicate)) …; format: functional; conditions: HEK293
[4] = biological target: T2, Heat shock 70 kDa protein 1A (Homo sapiens, UniProt P0DMV8); test: Hsp70 inhibitors, probe displacement, primary screen, biochemical, fluorescence polarization (AID 583)
T2 sequence (P0DMV8 whole entry, the tested form may be a part): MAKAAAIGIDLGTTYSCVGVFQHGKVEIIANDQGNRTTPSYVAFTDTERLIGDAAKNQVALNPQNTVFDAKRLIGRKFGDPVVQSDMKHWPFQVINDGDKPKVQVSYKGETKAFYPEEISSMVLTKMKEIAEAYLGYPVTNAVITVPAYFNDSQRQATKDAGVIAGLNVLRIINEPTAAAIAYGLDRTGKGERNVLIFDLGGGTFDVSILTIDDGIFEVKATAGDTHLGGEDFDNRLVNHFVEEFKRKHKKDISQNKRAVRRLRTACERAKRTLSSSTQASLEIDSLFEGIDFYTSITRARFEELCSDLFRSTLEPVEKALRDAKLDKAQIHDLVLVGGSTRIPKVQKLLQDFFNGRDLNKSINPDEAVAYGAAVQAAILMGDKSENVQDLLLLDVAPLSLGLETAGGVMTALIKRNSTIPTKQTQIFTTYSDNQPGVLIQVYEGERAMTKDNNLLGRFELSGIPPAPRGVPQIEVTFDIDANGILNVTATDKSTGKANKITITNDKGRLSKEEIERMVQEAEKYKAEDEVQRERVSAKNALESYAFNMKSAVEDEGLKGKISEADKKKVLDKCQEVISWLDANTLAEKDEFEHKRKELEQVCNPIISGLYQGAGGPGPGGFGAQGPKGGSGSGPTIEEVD

[5] = inhibitors of HIV Env-driven cell fusion, dose response, cherry-pick (AID 652057); format: functional, cell-based
[6] = biological target: Eukaryotic translation initiation factor 4H (Homo sapiens, UniProt Q15056); test: human eIF4H binding inhibitors, primary screen, translation initiation inhibitor project, biochemical, uHTS, fluorescence polarization (AID 2012)
[7] = biological target: Protein-tyrosine kinase 2-beta (Homo sapiens, UniProt Q14289);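 further: potency of inhibitors of PYK2 kinase phosphorylation of poly-GT substrate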
Protein-tyrosine kinase 2-beta, sequence (Q14289 whole entry): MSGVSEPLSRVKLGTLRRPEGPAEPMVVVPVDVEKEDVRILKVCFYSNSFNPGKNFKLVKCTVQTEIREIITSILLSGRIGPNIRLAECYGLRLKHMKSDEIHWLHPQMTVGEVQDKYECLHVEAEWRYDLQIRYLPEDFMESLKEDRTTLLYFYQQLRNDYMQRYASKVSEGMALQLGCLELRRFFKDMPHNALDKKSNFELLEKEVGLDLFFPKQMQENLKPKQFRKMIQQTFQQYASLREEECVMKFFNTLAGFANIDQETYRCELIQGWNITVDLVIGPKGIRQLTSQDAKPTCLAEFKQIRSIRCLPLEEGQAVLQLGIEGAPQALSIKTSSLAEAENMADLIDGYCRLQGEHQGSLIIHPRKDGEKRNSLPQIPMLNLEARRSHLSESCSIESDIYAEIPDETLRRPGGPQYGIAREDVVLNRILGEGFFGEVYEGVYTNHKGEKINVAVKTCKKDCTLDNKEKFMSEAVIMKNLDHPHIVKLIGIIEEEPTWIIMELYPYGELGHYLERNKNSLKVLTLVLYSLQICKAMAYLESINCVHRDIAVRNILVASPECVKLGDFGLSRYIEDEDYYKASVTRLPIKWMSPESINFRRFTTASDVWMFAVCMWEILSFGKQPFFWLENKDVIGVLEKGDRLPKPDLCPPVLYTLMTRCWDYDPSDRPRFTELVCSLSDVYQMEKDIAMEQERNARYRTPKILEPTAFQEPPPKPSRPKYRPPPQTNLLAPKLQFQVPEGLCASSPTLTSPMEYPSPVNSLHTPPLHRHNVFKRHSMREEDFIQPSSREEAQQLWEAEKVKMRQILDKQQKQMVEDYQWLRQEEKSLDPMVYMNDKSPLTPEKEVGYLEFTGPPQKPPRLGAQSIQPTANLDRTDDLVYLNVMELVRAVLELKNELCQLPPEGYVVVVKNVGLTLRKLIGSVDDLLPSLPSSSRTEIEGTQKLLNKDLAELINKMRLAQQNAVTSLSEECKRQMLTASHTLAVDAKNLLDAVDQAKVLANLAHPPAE

[8] = biological target: T3, fMet-Leu-Phe receptor (Homo sapiens, UniProt P21462); test: FPR ligands, dose response (AID 519); format: functional
T3 sequence (P21462 whole entry): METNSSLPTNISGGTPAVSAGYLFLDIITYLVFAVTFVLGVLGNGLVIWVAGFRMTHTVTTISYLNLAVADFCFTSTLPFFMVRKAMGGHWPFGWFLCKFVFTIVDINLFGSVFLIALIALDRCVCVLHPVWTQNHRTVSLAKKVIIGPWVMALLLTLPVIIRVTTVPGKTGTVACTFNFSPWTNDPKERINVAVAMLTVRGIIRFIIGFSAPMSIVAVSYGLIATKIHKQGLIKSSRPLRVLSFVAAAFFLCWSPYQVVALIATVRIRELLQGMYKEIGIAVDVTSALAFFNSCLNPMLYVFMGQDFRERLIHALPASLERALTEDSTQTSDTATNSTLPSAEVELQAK

[9] = biological target: T4, Tyrosine-protein phosphatase non-receptor type 7 (Homo sapiens, UniProt P35236); test: Dose Response confirmation of compounds that inhibit HePTP. [Related pubchem assays (depositor defined):AID1059, AID1661, AID2085]; format: functional
T4 sequence (P35236 whole entry): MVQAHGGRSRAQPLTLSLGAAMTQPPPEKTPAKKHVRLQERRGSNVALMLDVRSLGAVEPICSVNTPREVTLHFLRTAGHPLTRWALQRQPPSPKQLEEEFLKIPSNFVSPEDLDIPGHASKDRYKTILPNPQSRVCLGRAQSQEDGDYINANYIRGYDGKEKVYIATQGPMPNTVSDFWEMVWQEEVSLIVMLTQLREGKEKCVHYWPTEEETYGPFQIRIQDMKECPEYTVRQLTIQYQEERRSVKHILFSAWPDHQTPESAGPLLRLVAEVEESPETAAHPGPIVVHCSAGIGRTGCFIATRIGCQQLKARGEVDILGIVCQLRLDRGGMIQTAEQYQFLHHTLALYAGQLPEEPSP

[10] = biological target: T5, Dual specificity protein phosphatase 3 (Homo sapiens, UniProt P51452); test: Dose Response Confirmation of compounds that inhibit VHR1 in Fluorescent Assay. [Related pubchem assays (depositor defined):AID1661, AID1878]; format: functional
T5 sequence (P51452 whole entry, the tested form may be a part): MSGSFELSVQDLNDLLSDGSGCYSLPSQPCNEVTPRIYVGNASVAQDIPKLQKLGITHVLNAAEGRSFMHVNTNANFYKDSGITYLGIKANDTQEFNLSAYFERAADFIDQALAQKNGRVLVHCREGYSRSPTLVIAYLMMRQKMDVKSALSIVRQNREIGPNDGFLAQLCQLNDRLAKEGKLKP

[11] = CEM21 lymphoblast cell cytotoxicity, dose response, cytotoxicity control for viral fusion inhibitor project, CellTiter-Glo luminescence, cherry-picked (AID 652042); format: functional, cell-based;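 further: potency for signal decrease meaning cytotoxicity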
[12] = biological target: T2, Heat shock 70 kDa protein 1A; test: Hsp70 inhibitors, biochemical, TR-FRET (AID 786)
[13] = biological target: T5, Dual specificity protein phosphatase 3; test: SAR VHR1 Fluorescent Assay for In Vitro dose response studies Set 3. [Related pubchem assays (depositor defined):AID1654, AID1661, AID1878]; format: functional
[14] = cells
[15] = HEp-2 cell cytotoxicity, dose response, cytotoxicity control for RSV inhibitor project, HTS (AID 2410); format: functional; conditions: human respiratory syncytial virus
[16] = test system: Vero; test: cells; format: functional; conditions: Chlorocebus sabaeus
[17] = test system: Vero; test: cells; format: functional, cell-based; conditions: Chlorocebus sabaeus
[18] = test system: HEK293; test: cells; conditions: Homo sapiens
[19] = test system: HEK293; test: cells; conditions: Homo sapiens; remark: listed apart in the source

Polyadenylate-binding protein 1, sequence (P11940 whole entry): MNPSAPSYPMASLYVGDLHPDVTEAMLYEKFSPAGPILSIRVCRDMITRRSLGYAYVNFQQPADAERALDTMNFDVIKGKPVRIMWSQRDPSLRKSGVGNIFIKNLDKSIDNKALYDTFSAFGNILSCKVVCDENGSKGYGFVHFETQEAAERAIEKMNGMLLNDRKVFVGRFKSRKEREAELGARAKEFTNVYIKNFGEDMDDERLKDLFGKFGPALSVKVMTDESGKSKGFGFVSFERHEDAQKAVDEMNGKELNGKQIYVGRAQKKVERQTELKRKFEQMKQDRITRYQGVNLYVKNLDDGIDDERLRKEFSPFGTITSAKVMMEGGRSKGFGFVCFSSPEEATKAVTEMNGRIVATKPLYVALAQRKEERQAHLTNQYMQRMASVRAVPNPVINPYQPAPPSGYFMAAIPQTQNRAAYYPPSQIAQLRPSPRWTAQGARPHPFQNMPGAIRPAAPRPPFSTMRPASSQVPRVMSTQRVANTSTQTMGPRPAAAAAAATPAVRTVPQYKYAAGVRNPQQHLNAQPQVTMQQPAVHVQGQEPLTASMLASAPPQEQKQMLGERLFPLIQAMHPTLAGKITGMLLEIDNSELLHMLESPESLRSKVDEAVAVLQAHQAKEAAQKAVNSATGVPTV

Question: With `COc1ccc(-c2nnc(Nc3nc4c(OC)cccc4s3)o2)cc1` as the compound, how does the IC50 [1] read?
Answer: > 100 µM (inactive)

Question: And the IC50 [2]?
Answer: > 55.9 µM (not active)

Question: What about the IC50 [3] of the same compound?
Answer: 17.1 µM (not active)

Question: And the IC50 [4]?
Answer: > 100 µM (not active)

Question: And the AC50 [5]?
Answer: 5.28 µM (active)

Question: And the IC50 [6]?
Answer: 12.5 µM (active)

Question: What about the IC50 [7] of the same compound?
Answer: 9.06 µM (active)

Question: What about the Ki [8] of the same compound?
Answer: > 66.7 µM (inactive)

Question: And the IC50 [9]?
Answer: 6.08 µM (active)

Question: And the IC50 [10]?
Answer: 1.78 µM (active)

Question: And the AC50 [11]?
Answer: 52.2 µM (active)

Question: What about the IC50 [12] of the same compound?
Answer: > 100 µM (not active)

Question: What about the IC50 [13] of the same compound?
Answer: 3.61 µM (active)

Question: With `CC1Cc2ccccc2N1S(=O)(=O)c1cccc(C(=O)N2CCN(c3ncccn3)CC2)c1` (centres undefined) as the compound, how does the IC50 [14] read?
Answer: 1.01 µM (active)

Question: What about the CC50 [15] of the same compound?
Answer: 3.41 µM (active)

Question: What about the CC50 [16] of the same compound?
Answer: > 25 µM (active)

Question: What about the IC50 [17] of the same compound?
Answer: 2.15 µM (active)

Question: With `Cc1nn2c(nc(N3CCCCC3)c3ccccc32)c1C=O` as the compound, how does the EC50 [18] read?
Answer: > 59.7 µM (inactive)

Question: What about the EC50 [19] of the same compound?
Answer: > 59.7 µM (inactive)
